Test results as given in patent US11849726B2, “Microbicidal composition” (Lanxess Corporation, priority 2016, dated 2023).

Tests used:
Assay type in all cases: cell-based
[1] = system: Staphylococcus aureus ATCC #6538; assay: MIC / synergy index test in 96 well microtiter plates, Gram positive bacteria; details: S. aureus ATCC #6538, contact time 24 hrs, 10% tryptic soy broth
Method: (§1) Phenoxyethanol and Dipropylene glycol phenyl ether were evaluated for synergy by determining the synergy index (S.I.) of the combination. Synergy index was calculated based on minimum inhibitory concentrations (MIC) of two antimicrobial compounds (A and B) alone and in combinations. The MIC test were run in accordance with the method described in U.S. Pat. No. 9,034,905. The tests organisms were Gram negative bacteria (Pseudomonas aeruginosa ATCC #15442), Gram positive bacteria (Staphylococcus aureus ATCC #6538), and yeast (Candida albicans ATCC #10231) and mold (Aspergillus brasiliensis ATCC #16404). Contact time for the bacteria was 24 and 48 hours, yeast was 48 and 72 hrs, and 3 and 7 days for mold. The test was carried out in 96 well microtiter plates.
(§2) SI is calculated as follows: Ca/CA+Cb/CB=Synergy Index (“SI”) Wherein: • CA=concentration of compound A in ppm, acting alone, which produced an end point (MIC of Compound A). • Ca=concentration of compound A in ppm, in the mixture, which produced an end point. • CB=concentration of compound B in ppm, acting alone, which produced an end point (MIC of Compound B). • Cb=concentration of compound B in ppm, in the mixture, which produced an end point.
(§3) When the sum of Ca/CA and Cb/CB is greater than one, antagonism is indicated.

[2] = system: Aspergillus brasiliensis ATCC #16404; assay: MIC / synergy index test in 96 well microtiter plates, mold; details: A. brasiliensis ATCC #16404, contact time 3 days, potato dextrose broth
Method: as §1, §2, §3

[3] = system: Candida albicans ATCC #10231; assay: MIC / synergy index test in 96 well microtiter plates, yeast; details: C. albicans ATCC #10231, contact time 24 hrs, potato dextrose broth
Method: as §1, with “Contact time for the bacteria was 24 and 48 hours, yeast was 48 and 72 hrs, and 3 and 7 days for mold.” left out
as §2, §3

Structure (SMILES) | MIC of compound acting alone (CA / CB) [1] | MIC of compound acting alone (CA / CB) [2] | MIC of compound acting alone (CA / CB) [3]
CC(CO)OCC(C)Oc1ccccc1 (stereo not drawn) [Dipropylene glycol phenyl ether] | 19992 ppm AI | 10000 ppm AI | 19992 ppm AI
OCCOc1ccccc1 [Phenoxyethanol, 2-phenoxy-1-ethanol] | 5000 ppm AI | 3000 ppm AI | 5000 ppm AI
